Reference: US20090169538A1, “Methods of Treating or Preventing Tissue Damage Caused by Increased Blood Flow” (REGENERX BIOPHARMACEUTICALS, INC., priority 2006, published 2009)

Tests used:
[1] = tested on: primary rat neonatal cardiomyocytes; assay: primary neonatal cardiomyocytes cultured on laminin-coated glass; assay type: cell-based
Description: To test the response of post-natal cardiomyocytes, primary rat neonatal cardiomyocytes were cultured on laminin-coated glass and treated the cells with phosphate buffered saline (PBS) or thymosin β4. […] In addition to thymosin β4's effects on myocardial cell migration, a similar effect was observed on endothelial migration in the embryonic heart explant assay.
Primary culture of neonatal cardiomyocytes typically survived for approximately one to two weeks with some cells beating up to two weeks when grown on laminin-coated slides in our laboratory. […] In addition, the rate of beating was consistently faster in thymosin β4-treated neonatal cardiomyocytes (95 vs. 50 beats per minute, p<0.02), indicating either a change in cell-cell communication or more vigorous cardiomyocytes.

PINCH = biological target: T1, PINCH (Mus musculus, UniProt Q99JW4); assay: phage display ELISA confirmation and coimmunoprecipitation with PINCH; assay type: binding
T1 construct: myc or FLAG (co-immunoprecipitation only); made in house; host or cells: T7 phage amplified in E. coli BLT5615 (ELISA); Cos and 10T1/2 cells transfected (co-IP)
Text: To investigate the potential mechanisms through which thymosin β4 might be influencing cell migration and survival events, thymosin β4 interacting proteins were searched. The amino-terminus of […] was fused with affi-gel beads resulting in exposure of the carboxy-terminus that allowed identification of previously unknown interacting proteins but prohibited association with actin. An E9.5-12.5 mouse heart T7 phage cDNA library was synthesized and screened by phage display and thymosin β4-interacting clones were enriched and confirmed by ELISA. PINCH, a LIM domain protein, was most consistently isolated in this screen and interacted with thymosin β4 in the absence of actin (ELISA). PINCH and integrin linked kinase (ILK) interact directly with one another and indirectly with the actin cytoskeleton as part of a larger complex involved in cell-extracellular matrix interactions known as the focal adhesion complex. PINCH and ILK are required for cell motility and for cell survival, in part by promoting phosphorylation of the serine-threonine kinase Akt/protein kinase B, a central kinase in survival and growth signaling pathways. […] The PINCH interaction with thymosin β4 mapped to the fourth and fifth LIM domains of PINCH while the amino terminal ankryin domain of ILK was sufficient for thymosin β4 interaction. […]

ILK and Akt = assay: western blot of heart lysates after coronary ligation; assay type: in vivo, mice
Description: Because thymosin β4 upregulates ILK activity and Akt phosphorylation in cultured cells, the effects on these kinases in vivo were tested. […] Total Akt protein was not increased.
Myocardial infarction was produced in fifty-eight male C57BL/6J mice at 16 weeks of age (25-30 g) by ligation of the left anterior descending coronary artery as previously described. Twenty-nine of the ligated mice received thymosin β4 treatment immediately following ligation and the remaining twenty-nine received PBS injections. Treatment was given intracardiac with thymosin β4 (200 ng in 10 ul collagen) or with 10 ul of collagen; intraperitoneally with thymosin β4 (150 μg in 300 μl PBS) or with […]; or by both intracardiac and intraperitoneal injections. Intraperitoneal injections were given every three days until mice were sacrificed. Doses were based on previous studies of thymosin β4 biodistribution. Hearts were removed, weighed and fixed for histologic sectioning. Additional mice were operated on in a similar fashion for studies 0.5, 1, 3, 6 and 11 days after ligation.

T1 sequence (Q99JW4 whole entry): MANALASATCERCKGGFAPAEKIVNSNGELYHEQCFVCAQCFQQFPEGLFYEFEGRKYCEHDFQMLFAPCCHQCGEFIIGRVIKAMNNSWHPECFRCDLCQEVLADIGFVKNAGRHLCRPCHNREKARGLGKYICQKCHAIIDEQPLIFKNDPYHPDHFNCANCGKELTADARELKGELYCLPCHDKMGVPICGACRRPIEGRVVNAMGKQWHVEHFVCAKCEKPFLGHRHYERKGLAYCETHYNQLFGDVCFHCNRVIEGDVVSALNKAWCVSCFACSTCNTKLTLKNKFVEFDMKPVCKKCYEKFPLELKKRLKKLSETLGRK

With thymosin β4 the “migrational distance of neonatal cardiomyocytes” value ([1]; compared to PBS control, p<0.05) was “significantly increased”, the “survival, rhythmically contracting myocytes visible” value ([1]; laminin-coated slides, untreated cultures approximately one to two weeks) was “up to 28 days” and the rate of beating ([1]; vs. 50 in control, p<0.02) was 95 beats per minute. The “interaction with PINCH in the absence of actin (ELISA)” value (PINCH; phage display clones, ELISA) was “interacted”, the “co-precipitation with PINCH” value (PINCH; plasmids transfected in cultured cells) was “co-precipitated” and the “total Akt protein” value (ILK and Akt) was “not increased”. For the same substance, the “level of ILK protein in heart lysates” value (ILK and Akt; compared with PBS treated mice) was “increased” and the “amount of phosphorylated Akt-5473” value (ILK and Akt; phospho-specific antibodies) was “elevation”.
